Measurements: patent US8680094B2, “1, 4-benzoxazine compounds and derivatives thereof as therapeutic drugs for the treatment of neurodegenerative conditions” (Board of Regents, The University of Texas System, priority 2008, dated 2014)

Tests used:
Assay in all cases: In vitro kinase activity
Type in all cases: biochemical
p38α = p38α (Homo sapiens, UniProt Q16539); settings: percentage of control assays without compound, mean of duplicate
Procedure: (§1) To better understand the mechanism of action of the compounds of the present invention, but in no way a limitation; the effects of HSB-13 and ASK-2a on 20 different kinases were examined in vitro. At 500 nM concentration, ASK-2a inhibited the kinase activities of GSK3α, GSK3β, p38α, p38β, JNK3, MLK3, and B-Raf substantially. […] As described above, ASK-2a protects cerebellar granule neurons against LK-induced death but is ineffective against HCA-induced toxicity of HT-22 cells. In contrast, HSB-13 is protective in both paradigms. […] Previous studies have established that CDK inhibitors can protect neurons against a number of different apoptotic stimuli.
(§2) The activity of each kinase was measured in vitro in the presence either 100 nM or 500 nM ASK-2a. Kinase activity is expressed as a percentage of that in control assays (without ASK-2a). The values are mean of assays performed in duplicate. Substantial inhibition of kinase activity (>20%) is in bold type.
(§3) Table 3: Effect of HSB-13 at 500 nM on 20 different kinases measured in vitro. Kinase activity is expressed as a percentage of that in control assays (without HSB-13). The values are mean of assays performed in duplicate. Substantial inhibition of kinase activity (>20%) is in bold type.

DAPK1 = DAPK1 (Homo sapiens, UniProt P53355); settings: percentage of control assays without compound, mean of duplicate
Procedure: as §1, §2, §3

CDK4/Cyclin D1 = CDK4/Cyclin D1 (Homo sapiens, UniProt P11802); settings: percentage of control assays without compound, mean of duplicate
Procedure: as §1, §2, §3

JNK3 = JNK3 (Homo sapiens, UniProt P53779); settings: percentage of control assays without compound, mean of duplicate
Procedure: as §1, §2, §3

LRRK2 = LRRK2 (Homo sapiens, UniProt Q5S007); settings: percentage of control assays without compound, mean of duplicate
Procedure: as §1, §2, §3

MEKK1 = MEKK1 (Homo sapiens, UniProt Q13233); settings: percentage of control assays without compound, mean of duplicate
Procedure: as §1, §2, §3

JNK2 = JNK2 (Homo sapiens, UniProt P45984); settings: percentage of control assays without compound, mean of duplicate
Procedure: as §1, §2, §3

MLK3 = MLK3 (Homo sapiens, UniProt Q16584); settings: 100 nM, percentage of control assays without compound, mean of duplicate
Procedure: as §1, §2, §3

CDK1/Cylcin A1 = CDK1/Cylcin A1 (Homo sapiens, UniProt P06493); settings: percentage of control assays without compound, mean of duplicate
Procedure: as §1, §2, §3

ROCK1 = ROCK1 (Homo sapiens, UniProt Q13464); settings: percentage of control assays without compound, mean of duplicate
Procedure: as §1, §2, §3

CDK1/Cyclin B1 = CDK1/Cyclin B1 (Homo sapiens, UniProt P06493); settings: percentage of control assays without compound, mean of duplicate
Procedure: as §1, §2, §3

GSK3α = GSK3α (Homo sapiens, UniProt P49840); settings: percentage of control assays without compound, mean of duplicate
Procedure: as §1, §2, §3

CDK5/p25 = CDK5/p25 (Homo sapiens, UniProt Q00535); settings: percentage of control assays without compound, mean of duplicate
Procedure: as §1, §2, §3

p38β = p38β (Homo sapiens, UniProt Q15759); settings: percentage of control assays without compound, mean of duplicate
Procedure: as §1, §2, §3

CDK2/Cyclin A1 = CDK2/Cyclin A1 (Homo sapiens, UniProt P24941); settings: percentage of control assays without compound, mean of duplicate
Procedure: as §1, §2, §3

B-Raf = biological target: T1, B-Raf (Homo sapiens, UniProt P15056); settings: percentage of control assays without compound, mean of duplicate
T1 construct: in some cases SignalChem; host or cells: Sf9 insect cells (baculovirus)
Procedure: as §1, §2, §3
(§4) Effect of chemical compounds c-Raf and B-Raf purified from insect cells. In vitro kinase assays were performed using purified kinase (expressed by baculovirus in Sf9 insect cells) and synthetic substrates under standard conditions using the Kinase Profiling service of Upstate Biotechnology. Briefly, for each assay 5-10 mU of purified kinase is incubated with the chemical compound (0.1-1 uM concentration) in a buffer containing 8 mM MOPS, pH 7.2, 0.2 mM EDTA, 10 mM Mg Acetate and [γ-^33P-ATP] for 40 min at room temperature. MBP is used as substrate. Kinase activity is quantified by measuring ^33P incorporation by spotting an aliquot on P30 filters, washing in 50 mM phosphoric acid and scintillation counting.
(§5) In some cases, effects on c-Raf and B-Raf are assayed by SignalChem as follows. Protein kinase assays (in duplicate or triplicate) were performed at ambient temperature for 20-40 minutes in a final volume of 25 μl. The assay was initiated by the addition of ^33P-ATP and the reaction mixture incubated at ambient temperature for 20-40 minutes, depending on the protein kinase target. After the incubation period, the assay was terminated by spotting 10 μl of the reaction mixture onto Multiscreen phosphocellulose P81 plate. The Multiscreen phosphocellulose P81 plate was washed 3 times for approximately 15 minutes each in a 1% phosphoric acid solution.
(§6) The radioactivity on the P81 plate was counted in the presence of scintillation fluid in a Trilux scintillation counter. Blank control is included all the assay components except the addition of the appropriate substrate (replace with equal volume of assay dilution buffer), was set up for each protein kinase target. The corrected activity for each protein kinase target was determined by removing the blank control value.

c-Raf = biological target: T2, c-Raf (Homo sapiens, UniProt P04049); settings: percentage of control assays without compound, mean of duplicate
T2 construct: in some cases SignalChem; host or cells: Sf9 insect cells (baculovirus)
Procedure: as §1, §2, §3, §4, §5, §6

[1] = 100 nM, listed as ASK2a, 0.1 µM

Chain of CDK4/Cyclin D1 (P11802 whole entry, species assumed): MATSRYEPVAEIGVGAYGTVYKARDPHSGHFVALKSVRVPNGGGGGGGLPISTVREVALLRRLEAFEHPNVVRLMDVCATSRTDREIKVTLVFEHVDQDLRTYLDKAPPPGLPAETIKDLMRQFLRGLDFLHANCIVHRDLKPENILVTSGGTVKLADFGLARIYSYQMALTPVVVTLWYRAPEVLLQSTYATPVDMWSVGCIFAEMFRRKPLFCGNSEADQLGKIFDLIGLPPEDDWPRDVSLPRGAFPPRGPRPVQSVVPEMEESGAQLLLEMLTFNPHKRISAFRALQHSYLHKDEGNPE
Chain of CDK4/Cyclin D1 (P24385 whole entry partner, species assumed): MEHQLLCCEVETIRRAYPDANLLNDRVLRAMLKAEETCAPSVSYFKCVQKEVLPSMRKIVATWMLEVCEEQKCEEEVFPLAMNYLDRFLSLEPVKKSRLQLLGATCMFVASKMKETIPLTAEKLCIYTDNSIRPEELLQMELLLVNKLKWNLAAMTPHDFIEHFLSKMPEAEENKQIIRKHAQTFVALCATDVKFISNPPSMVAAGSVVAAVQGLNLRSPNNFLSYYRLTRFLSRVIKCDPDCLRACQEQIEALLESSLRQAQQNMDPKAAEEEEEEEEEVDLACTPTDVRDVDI
Chain of p38β (Q15759 whole entry): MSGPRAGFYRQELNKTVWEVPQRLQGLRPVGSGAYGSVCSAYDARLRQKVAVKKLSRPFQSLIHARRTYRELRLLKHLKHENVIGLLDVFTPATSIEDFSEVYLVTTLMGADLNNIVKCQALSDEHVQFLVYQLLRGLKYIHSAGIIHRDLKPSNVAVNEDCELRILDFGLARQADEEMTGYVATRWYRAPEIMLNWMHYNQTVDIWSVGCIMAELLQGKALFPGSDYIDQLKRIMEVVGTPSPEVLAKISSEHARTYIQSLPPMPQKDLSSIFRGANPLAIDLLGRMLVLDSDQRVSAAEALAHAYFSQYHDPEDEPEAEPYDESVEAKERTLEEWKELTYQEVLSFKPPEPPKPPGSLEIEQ
Chain of ROCK1 (Q13464 whole entry, species assumed): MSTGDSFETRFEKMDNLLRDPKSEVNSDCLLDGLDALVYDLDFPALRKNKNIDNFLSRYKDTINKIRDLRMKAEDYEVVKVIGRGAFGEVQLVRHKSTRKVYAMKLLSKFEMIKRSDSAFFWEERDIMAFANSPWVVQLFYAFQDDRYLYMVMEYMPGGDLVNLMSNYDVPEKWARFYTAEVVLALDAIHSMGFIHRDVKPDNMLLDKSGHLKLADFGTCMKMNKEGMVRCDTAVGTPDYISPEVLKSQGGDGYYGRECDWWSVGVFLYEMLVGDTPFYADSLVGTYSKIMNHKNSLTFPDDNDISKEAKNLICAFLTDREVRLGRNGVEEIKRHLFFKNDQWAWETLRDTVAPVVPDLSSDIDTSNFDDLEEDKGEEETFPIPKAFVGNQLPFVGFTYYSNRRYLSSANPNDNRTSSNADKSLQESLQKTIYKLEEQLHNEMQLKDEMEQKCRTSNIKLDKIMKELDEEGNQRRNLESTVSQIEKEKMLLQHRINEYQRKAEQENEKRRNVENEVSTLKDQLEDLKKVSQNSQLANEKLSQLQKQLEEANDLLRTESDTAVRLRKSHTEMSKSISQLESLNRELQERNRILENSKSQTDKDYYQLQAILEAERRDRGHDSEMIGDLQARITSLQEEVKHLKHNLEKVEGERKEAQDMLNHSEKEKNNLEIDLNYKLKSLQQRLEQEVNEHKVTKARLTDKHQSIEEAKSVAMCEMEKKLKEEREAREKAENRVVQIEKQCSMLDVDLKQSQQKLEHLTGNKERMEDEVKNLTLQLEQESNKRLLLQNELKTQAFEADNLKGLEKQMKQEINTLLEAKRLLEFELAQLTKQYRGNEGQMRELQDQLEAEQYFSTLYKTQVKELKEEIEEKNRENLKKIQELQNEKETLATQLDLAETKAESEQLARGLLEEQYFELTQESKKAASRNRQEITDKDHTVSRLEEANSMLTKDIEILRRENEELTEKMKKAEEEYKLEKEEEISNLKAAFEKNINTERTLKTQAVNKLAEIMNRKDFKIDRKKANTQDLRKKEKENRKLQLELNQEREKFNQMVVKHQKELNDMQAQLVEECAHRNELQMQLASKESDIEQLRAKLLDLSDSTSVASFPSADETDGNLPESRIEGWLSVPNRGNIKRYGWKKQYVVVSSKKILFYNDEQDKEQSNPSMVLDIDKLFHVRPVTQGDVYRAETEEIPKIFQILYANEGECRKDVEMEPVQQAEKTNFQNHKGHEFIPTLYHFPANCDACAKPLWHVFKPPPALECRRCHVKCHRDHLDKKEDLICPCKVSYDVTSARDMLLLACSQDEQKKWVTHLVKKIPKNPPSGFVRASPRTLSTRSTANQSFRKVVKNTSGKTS
Chain of CDK5/p25 (Q00535 whole entry, species assumed): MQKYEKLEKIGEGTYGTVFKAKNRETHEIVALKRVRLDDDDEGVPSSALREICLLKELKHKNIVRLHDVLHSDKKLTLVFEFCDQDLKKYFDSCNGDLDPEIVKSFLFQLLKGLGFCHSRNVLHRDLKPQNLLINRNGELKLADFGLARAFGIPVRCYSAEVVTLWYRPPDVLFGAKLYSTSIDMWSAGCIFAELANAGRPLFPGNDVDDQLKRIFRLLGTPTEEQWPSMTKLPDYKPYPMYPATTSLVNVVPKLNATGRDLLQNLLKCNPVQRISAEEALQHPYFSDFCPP
Chain of CDK5/p25 (Q15078 99-307 partner limits assumed, species assumed): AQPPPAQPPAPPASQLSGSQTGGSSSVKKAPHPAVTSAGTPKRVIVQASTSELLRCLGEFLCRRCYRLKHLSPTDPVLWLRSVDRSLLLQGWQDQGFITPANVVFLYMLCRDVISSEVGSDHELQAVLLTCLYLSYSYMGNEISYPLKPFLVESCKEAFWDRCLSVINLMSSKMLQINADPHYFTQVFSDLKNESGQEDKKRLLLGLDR
Chain of DAPK1 (P53355 whole entry, species assumed): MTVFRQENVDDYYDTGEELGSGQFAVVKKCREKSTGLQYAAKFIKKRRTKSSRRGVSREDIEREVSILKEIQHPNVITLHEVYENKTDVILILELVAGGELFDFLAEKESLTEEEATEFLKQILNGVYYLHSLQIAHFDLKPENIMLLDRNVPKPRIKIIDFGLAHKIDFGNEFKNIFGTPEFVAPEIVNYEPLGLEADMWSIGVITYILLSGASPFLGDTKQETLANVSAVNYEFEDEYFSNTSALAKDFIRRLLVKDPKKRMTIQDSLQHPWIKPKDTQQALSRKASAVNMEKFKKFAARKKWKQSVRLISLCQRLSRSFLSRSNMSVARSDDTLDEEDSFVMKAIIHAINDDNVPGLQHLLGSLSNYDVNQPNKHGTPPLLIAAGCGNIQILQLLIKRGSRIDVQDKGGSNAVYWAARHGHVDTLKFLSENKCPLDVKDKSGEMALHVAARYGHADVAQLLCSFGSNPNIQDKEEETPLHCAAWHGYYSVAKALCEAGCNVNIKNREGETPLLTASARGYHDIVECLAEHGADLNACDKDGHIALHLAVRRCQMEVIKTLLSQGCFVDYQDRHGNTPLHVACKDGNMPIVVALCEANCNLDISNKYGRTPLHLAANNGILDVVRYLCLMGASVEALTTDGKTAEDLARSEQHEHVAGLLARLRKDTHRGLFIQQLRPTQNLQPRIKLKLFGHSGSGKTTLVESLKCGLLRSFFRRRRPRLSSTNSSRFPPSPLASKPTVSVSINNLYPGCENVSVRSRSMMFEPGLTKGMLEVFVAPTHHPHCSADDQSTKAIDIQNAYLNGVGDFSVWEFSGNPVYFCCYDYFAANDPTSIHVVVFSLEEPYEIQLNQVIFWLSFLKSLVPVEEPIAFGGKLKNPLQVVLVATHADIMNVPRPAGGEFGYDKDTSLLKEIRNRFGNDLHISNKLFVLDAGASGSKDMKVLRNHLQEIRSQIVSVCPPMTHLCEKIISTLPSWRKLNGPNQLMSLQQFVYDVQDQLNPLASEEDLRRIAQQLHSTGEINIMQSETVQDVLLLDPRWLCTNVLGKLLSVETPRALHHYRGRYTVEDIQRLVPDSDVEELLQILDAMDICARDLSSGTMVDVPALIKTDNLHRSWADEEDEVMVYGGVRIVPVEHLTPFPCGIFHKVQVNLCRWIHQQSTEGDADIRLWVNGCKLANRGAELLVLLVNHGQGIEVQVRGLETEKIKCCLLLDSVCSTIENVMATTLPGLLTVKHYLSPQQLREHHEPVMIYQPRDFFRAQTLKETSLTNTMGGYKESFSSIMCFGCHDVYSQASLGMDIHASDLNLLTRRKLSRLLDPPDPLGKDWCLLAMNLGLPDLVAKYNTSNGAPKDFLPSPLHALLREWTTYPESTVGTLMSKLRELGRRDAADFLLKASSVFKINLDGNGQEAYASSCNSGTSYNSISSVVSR
Chain of CDK1/Cyclin B1 (P06493 whole entry, species assumed): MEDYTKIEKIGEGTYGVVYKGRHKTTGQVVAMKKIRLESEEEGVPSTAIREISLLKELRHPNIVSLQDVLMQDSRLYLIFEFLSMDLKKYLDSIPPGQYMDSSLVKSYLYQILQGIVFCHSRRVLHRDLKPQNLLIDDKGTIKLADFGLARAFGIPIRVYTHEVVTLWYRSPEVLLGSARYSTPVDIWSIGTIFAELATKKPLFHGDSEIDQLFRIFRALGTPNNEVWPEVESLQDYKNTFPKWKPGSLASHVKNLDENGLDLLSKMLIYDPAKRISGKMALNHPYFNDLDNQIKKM
Chain of CDK1/Cyclin B1 (P14635 whole entry partner, species assumed): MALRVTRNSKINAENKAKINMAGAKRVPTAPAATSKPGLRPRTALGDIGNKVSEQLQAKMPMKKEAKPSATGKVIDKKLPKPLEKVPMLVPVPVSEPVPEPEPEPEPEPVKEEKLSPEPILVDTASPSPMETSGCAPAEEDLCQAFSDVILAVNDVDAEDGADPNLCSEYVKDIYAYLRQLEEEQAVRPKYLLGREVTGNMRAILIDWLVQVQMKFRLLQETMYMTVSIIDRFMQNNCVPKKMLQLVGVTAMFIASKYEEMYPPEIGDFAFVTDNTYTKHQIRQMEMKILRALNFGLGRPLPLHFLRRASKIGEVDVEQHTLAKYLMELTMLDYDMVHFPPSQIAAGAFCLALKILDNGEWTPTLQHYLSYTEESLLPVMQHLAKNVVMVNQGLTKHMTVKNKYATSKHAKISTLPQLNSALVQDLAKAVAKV

Row | SMILES | % ACTIVITY (DAPK1; 100 nM) [%] | % ACTIVITY (DAPK1; 500 nM) [%] | % ACTIVITY (CDK4/Cyclin D1; 100 nM) [%] | % ACTIVITY (CDK4/Cyclin D1; 500 nM) [%] | % ACTIVITY (LRRK2; 100 nM) [%] | % ACTIVITY (LRRK2; 500 nM) [%] | % ACTIVITY (MEKK1; 100 nM) [%] | % ACTIVITY (MEKK1; 500 nM) [%] | % ACTIVITY (JNK2; 100 nM) [%] | % ACTIVITY (CDK1/Cylcin A1; 100 nM) [%] | % ACTIVITY (ROCK1; 100 nM) [%] | % ACTIVITY (CDK1/Cyclin B1; 100 nM) [%] | % ACTIVITY (CDK5/p25; 100 nM) [%] | % ACTIVITY (CDK2/Cyclin A1; 100 nM) [%] | % ACTIVITY (c-Raf; 100 nM) [%] | further results
1 | O=C1Nc2ccccc2OC1=Cc1cc(Br)c(O)c(Br)c1 [ASK-2a] | 98 | 95 | 93 | 97 | 96 | 94 | 100 | 98 | 95 | 101 | 96 | 91 | 100 | 104 | 92 | % ACTIVITY (p38α; 100 nM, 0.1 µM): 76%; % ACTIVITY (p38α; [1]): inhibited efficiently; % ACTIVITY (JNK3; 100 nM, 0.1 µM): 94%; % ACTIVITY (JNK3; [1]): inhibited efficiently; % ACTIVITY (JNK2; 500 nM): 93%; % ACTIVITY (MLK3; 0.1 µM): 88%; % ACTIVITY (MLK3; listed as ASK2a, 0.1 µM): inhibited less efficiently; % ACTIVITY (CDK1/Cylcin A1; 500 nM): 88%; % ACTIVITY (ROCK1; 500 nM): 98%; % ACTIVITY (CDK1/Cyclin B1; 500 nM): 98%; % ACTIVITY (GSK3α; 100 nM, 0.1 µM): 71%; % ACTIVITY (GSK3α; [1]): inhibited efficiently; % ACTIVITY (CDK5/p25; 500 nM): 96%; % ACTIVITY (p38β; 100 nM, 0.1 µM): 33%; % ACTIVITY (p38β; [1]): inhibited efficiently; % ACTIVITY (CDK2/Cyclin A1; 500 nM): 100%; % ACTIVITY (B-Raf; 100 nM, 0.1 µM): 79%; % ACTIVITY (B-Raf; [1]): inhibited efficiently; % ACTIVITY (c-Raf; 500 nM): 88%
2 | Nc1ccc2c(c1)NC(=O)/C(=C/c1cc(Br)c(O)c(Br)c1)O2 [HSB-13, (Z)-6-amino-2-(3,′5′-dibromo-4′-hydrozybenzylidene)-2H-benzo[b][1,4]oxazin-3(4H)-one] | 96 | 84 | 103 | 88 | 97 | 88 | 99 | 98 | 98 | 95 | 91 | 90 | 84 | 82 | 97 | % ACTIVITY (p38α; 100 nM): 88%; % ACTIVITY (p38α; 500 nM): 43%; % ACTIVITY (JNK3; 100 nM): 92%; % ACTIVITY (JNK3; 500 nM): 92%; % ACTIVITY (MLK3): 94%; % ACTIVITY (GSK3α; 500 nM): 23%; % ACTIVITY (p38β; 500 nM): 10%; % ACTIVITY (B-Raf; 500 nM): 43%
